Our source for the IC50, Ratio IC50 and Activity values is ChEMBL document CHEMBL2069289, “Phosphodiesterase inhibitors. Part 4: design, synthesis and structure-activity relationships of dual PDE3/4-inhibitory fused bicyclic heteroaromatic-4,4-dimethylpyrazolones” (Bioorg Med Chem Lett, 2012).

Test [1] has as its target 3',5'-cyclic-AMP phosphodiesterase 4B (Homo sapiens, UniProt Q07343). In words: Inhibition of core catalytic domain of PDE4B.
The target of test [2] is cGMP-inhibited 3',5'-cyclic phosphodiesterase 3A (Homo sapiens, UniProt Q14432). In words: Inhibition of core catalytic domain of PDE3A.
The species named for test [3] is Homo sapiens. In words: Selectivity ratio of IC50 for core catalytic domain of PDE4B to IC50 for core catalytic domain of PDE3A.
Test [4] relates to Cavia porcellus. In words: Bronchodilatory activity in guinea pig assessed as reduction of histamine-induced bronchoconstriction at 0.3 mg/kg, iv relative to control. The format is functional. Details: scale not given: the % may be the effect or the level left.
Test [5] concerns Cavia porcellus. In words: Bronchodilatory activity in guinea pig assessed as reduction of histamine-induced bronchoconstriction at 0.1 mg/kg, po relative to control. It counts as functional.

SMILES strings stand for the structures. pIC50: −log10 of the molar value. The source made the active and inactive calls. No cut-off for these calls is given here.

Sequence of cGMP-inhibited 3',5'-cyclic phosphodiesterase 3A (Q14432 whole entry, the tested form may be a part): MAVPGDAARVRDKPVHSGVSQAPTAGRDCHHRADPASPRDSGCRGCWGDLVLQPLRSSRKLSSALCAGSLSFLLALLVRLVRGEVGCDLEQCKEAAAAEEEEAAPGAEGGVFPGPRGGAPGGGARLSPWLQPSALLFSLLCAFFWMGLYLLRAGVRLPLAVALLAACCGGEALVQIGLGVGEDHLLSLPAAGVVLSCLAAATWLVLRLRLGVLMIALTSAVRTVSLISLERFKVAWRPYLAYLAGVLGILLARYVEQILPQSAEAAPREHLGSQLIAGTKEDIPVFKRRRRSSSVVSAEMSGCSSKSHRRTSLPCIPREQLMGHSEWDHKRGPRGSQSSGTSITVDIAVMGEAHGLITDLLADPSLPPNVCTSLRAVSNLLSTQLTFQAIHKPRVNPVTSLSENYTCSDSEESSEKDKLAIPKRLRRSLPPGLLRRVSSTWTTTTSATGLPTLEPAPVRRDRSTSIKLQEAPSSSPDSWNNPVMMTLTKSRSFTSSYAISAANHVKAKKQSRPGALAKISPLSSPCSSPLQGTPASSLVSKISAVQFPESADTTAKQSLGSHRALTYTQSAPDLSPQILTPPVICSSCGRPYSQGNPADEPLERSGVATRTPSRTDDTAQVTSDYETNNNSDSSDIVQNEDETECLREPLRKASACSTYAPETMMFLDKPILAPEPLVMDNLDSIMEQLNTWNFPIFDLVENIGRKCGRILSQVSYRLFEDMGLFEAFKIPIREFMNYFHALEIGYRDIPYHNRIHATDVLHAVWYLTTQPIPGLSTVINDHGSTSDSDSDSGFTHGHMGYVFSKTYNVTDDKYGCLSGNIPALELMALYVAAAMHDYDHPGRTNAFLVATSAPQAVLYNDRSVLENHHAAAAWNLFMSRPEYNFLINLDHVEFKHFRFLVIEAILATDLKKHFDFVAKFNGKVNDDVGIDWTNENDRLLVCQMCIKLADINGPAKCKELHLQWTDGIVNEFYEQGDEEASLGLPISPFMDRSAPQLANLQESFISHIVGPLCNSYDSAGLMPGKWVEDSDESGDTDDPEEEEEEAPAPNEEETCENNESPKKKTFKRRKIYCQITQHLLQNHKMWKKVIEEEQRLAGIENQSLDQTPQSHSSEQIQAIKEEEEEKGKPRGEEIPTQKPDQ
Sequence of 3',5'-cyclic-AMP phosphodiesterase 4B (Q07343 whole entry, the tested form may be a part): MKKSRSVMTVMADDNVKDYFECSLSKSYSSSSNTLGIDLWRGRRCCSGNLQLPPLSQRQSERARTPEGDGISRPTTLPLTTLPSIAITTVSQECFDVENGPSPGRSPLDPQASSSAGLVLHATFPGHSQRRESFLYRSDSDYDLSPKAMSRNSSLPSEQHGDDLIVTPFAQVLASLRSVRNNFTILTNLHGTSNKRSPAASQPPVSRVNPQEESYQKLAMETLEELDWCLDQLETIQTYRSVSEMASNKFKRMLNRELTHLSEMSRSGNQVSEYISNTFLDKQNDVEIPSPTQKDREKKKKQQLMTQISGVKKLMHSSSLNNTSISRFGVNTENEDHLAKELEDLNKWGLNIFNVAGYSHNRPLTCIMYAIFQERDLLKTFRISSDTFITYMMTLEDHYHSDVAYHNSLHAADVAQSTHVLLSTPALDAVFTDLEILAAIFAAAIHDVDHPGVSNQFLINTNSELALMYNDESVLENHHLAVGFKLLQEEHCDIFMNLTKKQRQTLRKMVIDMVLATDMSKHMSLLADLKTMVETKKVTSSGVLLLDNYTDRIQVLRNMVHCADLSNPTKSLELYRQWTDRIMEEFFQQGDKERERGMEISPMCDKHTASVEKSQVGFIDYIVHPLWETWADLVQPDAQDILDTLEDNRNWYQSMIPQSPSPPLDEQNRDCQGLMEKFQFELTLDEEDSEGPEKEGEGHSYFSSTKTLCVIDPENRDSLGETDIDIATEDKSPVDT

For the compound `CCc1cc2c(C3=NNC(=O)C3(C)C)ccc(C(C)O)n2n1` (racemic), the pIC50 (as a rule, the IC50 on a negative log10 scale, so that one unit is a factor of ten) in test [1] is 8.47; in test [2], 5.79.

Turning to `COc1ccc(C2=NNC(=O)C2(C)C)c2cc(C(F)(F)F)nn12`, the negative-log IC50 (pIC50) in test [1] is 6.96; in test [2], 5.38.

Take `CCc1cc2c(C3=NNC(=O)CC3C)ccc(OC)n2n1` (racemic): the negative-log IC50 (pIC50) in test [1] is 6.33; in test [2], 4.95.

For `CCc1ccc2c(C3=NNC(=O)C3(C)C)ccc(OC)c2n1`, the figures for the negative logarithm of the IC50 (pIC50) in test [1] and in test [2] were 5.59 and 5.00, respectively.

As to `COc1ccc(C2=NNC(=O)C2(C)C)c2cc(C3CC3)nn12`, the figures for the pIC50 in test [1] and in test [2] were 6.82 and 5.21, respectively.

On to `COc1ccc(C2=NNC(=O)C2(C)C)c2[nH]c(C(F)(F)F)nc12`, for which the figures for the pIC50 in test [1] and in test [2] were 6.70 and 4.85, respectively.

For `CCc1cc2c(C3=NNC(=O)C3(C)C)ccc(SC)n2n1`, the pIC50 was 7.10 in test [1] and 5.05 in test [2].

With `COc1ccc(C2=NNC(=O)C2(C)C)c2cc(C(F)(F)F)oc12`, the negative-log IC50 (pIC50) was 6.44 in test [1] and 5.96 in test [2].

Regarding `CCc1cc2c(C3=NNC(=O)C3(C)C)ccc(CO)n2n1`, the negative logarithm of the IC50 (pIC50) in test [1] is 7.46; in test [2], 5.80.

For the compound `CCc1cc2c(C3=NNC(=O)C3(C)C)ccc(NC)n2n1`, the pIC50 was 7.82 in test [1] and 4.12 in test [2]. In test [3], the Ratio IC50 was determined as 5000.

Turning to `COc1ccc(C2=NNC(=O)C2(C)C)c2ccnn12`, the pIC50 is 5.53 in test [1] and 4.96 in test [2].

In the case of `COc1ccc(C2=NNC(=O)CC2C)c2cc(C(F)(F)F)nn12` (single isomer, unassigned; (-)), the results for the negative-log IC50 (pIC50) in test [1] and in test [2] were 7.38 and 6.44, respectively.

For the compound `COc1ccc(C2=NNC(=O)C2(C)C)c2cc(C(F)(F)F)sc12`, the results for the pIC50 in test [1] and in test [2] were 6.16 and 5.27, respectively.

Take `COc1ccc(C2=NNC(=O)C2(C)C)c2cc(C(F)F)nn12`: the figures for the negative-log IC50 (pIC50) in test [1] and in test [2] were 7.30 and 5.48, respectively.

`CCc1cc2c(C3=NNC(=O)C3(C)C)ccc(C(C)=O)n2n1`: the results for the negative-log IC50 (pIC50) in test [1] and in test [2] were 8.12 and 5.60, respectively.

Take `COc1ccc(C2=NNC(=O)C2(C)C)c2sc(C(F)(F)F)nc12`: the figures for the pIC50 in test [1] and in test [2] were 7.20 and 6.27, respectively. The Activity in test [4] was determined as 96%. Also, in test [5], the result was inactive.

For the compound `COc1ccc(C2=NNC(=O)C2(C)C)c2ccc(C(F)(F)F)nc12`, the pIC50 in test [1] was 5.97; in test [2] it was 5.18.

As to `CCc1cc2c(C3=NNC(=O)C3(C)C)ccc(C)n2n1`, the pIC50 in test [1] was 6.80; in test [2], 5.63.

Turning to `COc1ccc(C2=NNC(=O)C2(C)C)n2cc(C(F)(F)F)nc12`, the results for the negative logarithm of the IC50 (pIC50) in test [1] and in test [2] were 6.82 and 6.85, respectively. In addition, the results for the Activity in test [4] and in test [5] were 100% and over 70%, respectively.

Turning to `CCc1cc2c(C3=NNC(=O)C3(C)C)ccc(CC)n2n1`, the results for the pIC50 in test [1] and in test [2] were 7.77 and 5.70, respectively.

With `CCc1cc2c(C3=NNC(=O)C3(C)C)ccc(OC)n2n1`, the pIC50 in test [1] was 6.39; in test [2], 5.04.
